Legend:
[1] = biological target: C-C chemokine receptor type 5 (Homo sapiens, UniProt P51681); assay type: cell membranes, Membrane; details: hek293; further: in other assays of this panel Not Active means under 50% inhibition at 10 µM
Carbonic anhydrase 2 = Carbonic anhydrase 2 (Homo sapiens, UniProt P00918); experiment: DRUGMATRIX: Carbonic Anhydrase II enzyme inhibition (substrate: 4-Nitrophenyl acetate (4-NPA)); assay type: tissue-based, Erythrocyte; details: erythrocyte; Not Active = under 50% inhibition at 10 µM
Caspase-1 = biological target: T1, Caspase-1 (Homo sapiens, UniProt P29466); design: species or system Escherichia coli;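 further: Caspase-1 enzyme inhibition assay with a peptide substrate; in other assays of this panel Not Active means under 50% inhibition at 10 µM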
T1 sequence (P29466 whole entry): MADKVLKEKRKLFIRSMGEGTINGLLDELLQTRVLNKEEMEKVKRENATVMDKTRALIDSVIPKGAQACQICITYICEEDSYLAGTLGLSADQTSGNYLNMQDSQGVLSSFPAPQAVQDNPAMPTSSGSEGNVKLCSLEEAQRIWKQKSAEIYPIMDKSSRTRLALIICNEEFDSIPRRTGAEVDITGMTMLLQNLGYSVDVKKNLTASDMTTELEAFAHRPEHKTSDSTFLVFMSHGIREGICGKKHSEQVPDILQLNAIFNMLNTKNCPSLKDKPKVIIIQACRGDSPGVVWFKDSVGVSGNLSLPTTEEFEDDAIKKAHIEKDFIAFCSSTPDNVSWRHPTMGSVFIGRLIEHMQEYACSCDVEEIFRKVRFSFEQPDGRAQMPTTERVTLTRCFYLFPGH

Leukotriene C4 synthase = biological target: T2, Leukotriene C4 synthase (Cavia porcellus, UniProt A6XA80); assay type: tissue-based, Lung;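 further: enzyme inhibition assay of leukotriene C4 synthase, using LTA4 as the substrate; in other assays of this panel Not Active means under 50% inhibition at 10 µM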
T2 sequence (A6XA80 whole entry): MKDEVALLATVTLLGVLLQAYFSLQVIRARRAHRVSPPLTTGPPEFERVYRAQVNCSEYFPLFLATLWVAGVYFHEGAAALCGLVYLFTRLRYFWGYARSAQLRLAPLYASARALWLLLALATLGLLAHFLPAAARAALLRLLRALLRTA

[2] = biological target: T3, Alpha-1B adrenergic receptor (Rattus norvegicus, UniProt P15823); experiment: DRUGMATRIX: Alpha-1B adrenergic receptor radioligand binding (ligand: prazosin); assay type: cell membranes, Wistar, Liver, Membrane; details: Not Active = under 50% inhibition at 10 µM
T3 sequence (P15823 whole entry): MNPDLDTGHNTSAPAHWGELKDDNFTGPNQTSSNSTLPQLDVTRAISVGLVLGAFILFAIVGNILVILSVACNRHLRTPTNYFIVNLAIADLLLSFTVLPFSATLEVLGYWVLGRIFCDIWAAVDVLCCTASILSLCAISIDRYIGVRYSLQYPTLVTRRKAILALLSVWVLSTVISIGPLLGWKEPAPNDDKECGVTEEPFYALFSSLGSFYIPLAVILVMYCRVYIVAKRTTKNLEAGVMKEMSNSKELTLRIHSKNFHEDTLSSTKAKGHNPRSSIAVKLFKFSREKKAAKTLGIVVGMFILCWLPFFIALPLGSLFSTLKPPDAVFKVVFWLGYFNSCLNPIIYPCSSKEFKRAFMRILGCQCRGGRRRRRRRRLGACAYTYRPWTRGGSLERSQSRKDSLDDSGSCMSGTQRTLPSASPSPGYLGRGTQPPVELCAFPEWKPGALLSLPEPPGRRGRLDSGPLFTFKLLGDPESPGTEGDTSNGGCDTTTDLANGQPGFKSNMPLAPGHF

Calcitonin receptor = biological target: T4, Calcitonin receptor (Homo sapiens, UniProt P30988); assay type: cell membranes, Membrane; details: t47d; further: in other assays of this panel Not Active means under 50% inhibition at 10 µM
T4 sequence (P30988 whole entry): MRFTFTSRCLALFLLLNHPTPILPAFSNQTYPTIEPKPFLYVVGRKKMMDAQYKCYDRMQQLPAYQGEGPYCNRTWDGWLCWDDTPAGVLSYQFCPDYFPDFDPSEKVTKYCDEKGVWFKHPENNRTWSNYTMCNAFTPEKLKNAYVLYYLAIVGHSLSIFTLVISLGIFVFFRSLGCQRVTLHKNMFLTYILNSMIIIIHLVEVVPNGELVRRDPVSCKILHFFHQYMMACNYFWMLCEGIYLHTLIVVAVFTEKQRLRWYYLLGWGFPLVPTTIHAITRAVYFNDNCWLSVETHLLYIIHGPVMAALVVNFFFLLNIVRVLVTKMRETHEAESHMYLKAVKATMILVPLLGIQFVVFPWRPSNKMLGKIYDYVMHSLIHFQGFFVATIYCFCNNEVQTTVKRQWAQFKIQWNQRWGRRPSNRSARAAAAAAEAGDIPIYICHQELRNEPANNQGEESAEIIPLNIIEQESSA

Interstitial collagenase = biological target: T5, Interstitial collagenase (Homo sapiens, UniProt P03956); assay type: tissue-based, Rheumatoid synovial fibroblasts
T5 sequence (P03956 whole entry): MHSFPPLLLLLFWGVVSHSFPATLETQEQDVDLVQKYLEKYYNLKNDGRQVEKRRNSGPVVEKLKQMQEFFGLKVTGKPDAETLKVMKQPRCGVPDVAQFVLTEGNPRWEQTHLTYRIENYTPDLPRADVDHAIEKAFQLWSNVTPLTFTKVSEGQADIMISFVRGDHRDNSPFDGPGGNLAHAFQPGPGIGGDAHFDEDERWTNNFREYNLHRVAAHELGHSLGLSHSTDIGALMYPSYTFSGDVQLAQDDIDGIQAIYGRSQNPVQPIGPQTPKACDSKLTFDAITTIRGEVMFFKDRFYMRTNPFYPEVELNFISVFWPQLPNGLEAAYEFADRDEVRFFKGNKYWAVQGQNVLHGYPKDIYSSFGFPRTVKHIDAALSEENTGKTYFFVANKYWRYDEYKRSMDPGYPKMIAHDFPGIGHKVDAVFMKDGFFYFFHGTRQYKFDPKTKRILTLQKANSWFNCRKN

[3] = DRUGMATRIX: Phosphodiesterase PDE3 enzyme inhibition (substrate: [3H]cAMP + cAMP); assay type: tissue-based, Homo sapiens; details: platelet; Not Active = under 50% inhibition at 10 µM

Chain of C-C chemokine receptor type 5 (P51681 whole entry): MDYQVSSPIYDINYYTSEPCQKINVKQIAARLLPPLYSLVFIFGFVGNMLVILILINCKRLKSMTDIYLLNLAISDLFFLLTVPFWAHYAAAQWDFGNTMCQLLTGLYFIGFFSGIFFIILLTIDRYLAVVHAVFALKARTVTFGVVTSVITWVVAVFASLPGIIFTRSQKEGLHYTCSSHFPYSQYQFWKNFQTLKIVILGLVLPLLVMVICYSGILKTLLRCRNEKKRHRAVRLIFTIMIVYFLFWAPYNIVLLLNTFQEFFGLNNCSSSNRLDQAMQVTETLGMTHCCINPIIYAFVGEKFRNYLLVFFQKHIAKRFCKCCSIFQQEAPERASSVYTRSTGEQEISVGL

CCOC(N)=O
Not Active: IC50 [1] | IC50 (Carbonic anhydrase 2) | IC50 (Caspase-1) | IC50 (Leukotriene C4 synthase) | IC50 [2] | IC50 (Calcitonin receptor) | IC50 (Interstitial collagenase) | IC50 [3] | Ki [3]

COc1ccc(CN2CCNCC2)c(OC)c1OC [TRIMETAZIDINE]
Not Active: IC50 [1] | IC50 (Carbonic anhydrase 2) | IC50 (Caspase-1) | IC50 (Leukotriene C4 synthase) | IC50 [2] | IC50 (Calcitonin receptor) | IC50 (Interstitial collagenase) | IC50 [3] | Ki [3]

CC(=O)O[C@H]1C[C@@H]2CC[C@@H]3[C@H](CC[C@@]4(C)[C@H]3C[C@H]([N+]3(C)CCCCC3)[C@@H]4OC(C)=O)[C@@]2(C)C[C@@H]1N1CCCCC1.[Br-] [VECURONIUM BROMIDE]
Not Active: IC50 [1] | IC50 (Carbonic anhydrase 2) | IC50 (Caspase-1) | IC50 (Leukotriene C4 synthase) | IC50 [2] | IC50 (Calcitonin receptor) | IC50 (Interstitial collagenase) | IC50 [3] | Ki [3]

C[C@@H]1C[C@H]2[C@@H]3CCC4=CC(=O)C=C[C@]4(C)C3=CC[C@]2(C)[C@H]1C(=O)CN1CCN(c2cc(N3CCCC3)nc(N3CCCC3)n2)CC1 [TIRILAZAD]
Not Active: IC50 [1] | IC50 (Carbonic anhydrase 2) | IC50 (Caspase-1) | IC50 (Leukotriene C4 synthase) | IC50 [2] | IC50 (Calcitonin receptor) | IC50 (Interstitial collagenase) | IC50 [3] | Ki [3]

CC(C)OC(=O)C(C)(C)Oc1ccc(C(=O)c2ccc(Cl)cc2)cc1 [FENOFIBRATE]
Not Active: IC50 [1] | IC50 (Carbonic anhydrase 2) | IC50 (Caspase-1) | IC50 (Leukotriene C4 synthase) | IC50 (Calcitonin receptor) | IC50 (Interstitial collagenase)

C[C@@H](O)[C@H]1C(=O)N2C(C(=O)O)=C(S[C@@H]3CN[C@H](C(=O)N(C)C)C3)[C@H](C)[C@H]12 [MEROPENEM]
Not Active: IC50 [1] | IC50 (Carbonic anhydrase 2) | IC50 (Caspase-1) | IC50 (Leukotriene C4 synthase) | IC50 [2] | IC50 (Calcitonin receptor) | IC50 (Interstitial collagenase) | IC50 [3] | Ki [3]

CC[C@@H](CO)NC(=O)[C@@H]1C=C2c3cccc4c3c(cn4C)C[C@H]2N(C)C1 [METHYSERGIDE]
Not Active: IC50 [1] | IC50 (Carbonic anhydrase 2) | IC50 (Caspase-1) | IC50 (Leukotriene C4 synthase) | IC50 (Calcitonin receptor) | IC50 (Interstitial collagenase)

CC(C)(C)NC[C@H](O)COc1nsnc1N1CCOCC1 [TIMOLOL]
Not Active: IC50 [1] | IC50 (Carbonic anhydrase 2) | IC50 (Caspase-1) | IC50 (Leukotriene C4 synthase) | IC50 [2] | IC50 (Calcitonin receptor) | IC50 (Interstitial collagenase) | IC50 [3] | Ki [3]

CCN(CC)CC#CCOC(=O)C(O)(c1ccccc1)C1CCCCC1 (stereo not given) [OXYBUTYNIN]
Not Active: IC50 [1] | IC50 (Carbonic anhydrase 2) | IC50 (Caspase-1) | IC50 (Leukotriene C4 synthase) | IC50 (Calcitonin receptor) | IC50 (Interstitial collagenase)

O=c1[nH]c2ccccc2n1CCCN1CCC(n2c(=O)[nH]c3cc(Cl)ccc32)CC1 [DOMPERIDONE]
Not Active: IC50 [1] | IC50 (Carbonic anhydrase 2) | IC50 (Caspase-1) | IC50 (Leukotriene C4 synthase) | IC50 (Calcitonin receptor) | IC50 (Interstitial collagenase)

CC1=C(CC(=O)O)c2cc(F)ccc2/C1=C\c1ccc(S(C)(=O)=O)cc1 [EXISULIND]
Not Active: IC50 [1] | IC50 (Carbonic anhydrase 2) | IC50 (Caspase-1) | IC50 (Leukotriene C4 synthase) | IC50 [2] | IC50 (Calcitonin receptor) | IC50 (Interstitial collagenase) | IC50 [3] | Ki [3]

COc1ncnc(NS(=O)(=O)c2ccc(N)cc2)c1OC [SULFADOXINE]
Not Active: IC50 [1] | IC50 (Carbonic anhydrase 2) | IC50 (Caspase-1) | IC50 (Leukotriene C4 synthase) | IC50 [2] | IC50 (Calcitonin receptor) | IC50 (Interstitial collagenase) | IC50 [3] | Ki [3]

CC(=O)Nc1nnc(S(N)(=O)=O)s1 [ACETAZOLAMIDE]
Not Active: IC50 [1] | IC50 (Caspase-1) | IC50 (Leukotriene C4 synthase) | IC50 (Calcitonin receptor) | IC50 (Interstitial collagenase)

CO[C@H]1C[C@@H]2CC[C@@H](C)[C@@](O)(O2)C(=O)C(=O)N2CCCC[C@H]2C(=O)O[C@H]([C@H](C)C[C@@H]2CC[C@@H](O)[C@H](OC)C2)CC(=O)[C@H](C)/C=C(\C)[C@@H](O)[C@@H](OC)C(=O)[C@H](C)C[C@H](C)/C=C/C=C/C=C/1C [SIROLIMUS]
Not Active: IC50 [1] | IC50 (Carbonic anhydrase 2) | IC50 (Caspase-1) | IC50 (Leukotriene C4 synthase) | IC50 [2] | IC50 (Calcitonin receptor) | IC50 (Interstitial collagenase) | IC50 [3] | Ki [3]

OCCN1CCN(CCCN2c3ccccc3Sc3ccc(C(F)(F)F)cc32)CC1 [FLUPHENAZINE]
Not Active: IC50 [1] | IC50 (Carbonic anhydrase 2) | IC50 (Caspase-1) | IC50 (Leukotriene C4 synthase) | IC50 (Calcitonin receptor) | IC50 (Interstitial collagenase)

Cc1cn([C@H]2C[C@H](N=[N+]=[N-])[C@@H](CO)O2)c(=O)[nH]c1=O [ZIDOVUDINE]
Not Active: IC50 [1] | IC50 (Carbonic anhydrase 2) | IC50 (Caspase-1) | IC50 (Leukotriene C4 synthase) | IC50 [2] | IC50 (Calcitonin receptor) | IC50 (Interstitial collagenase) | IC50 [3] | Ki [3]

THIMEROSAL
Not Active: IC50 [1] | Ki [1] | IC50 (Carbonic anhydrase 2) | Ki (Carbonic anhydrase 2) | IC50 (Caspase-1) | Ki (Caspase-1) | IC50 (Leukotriene C4 synthase) | Ki (Leukotriene C4 synthase) | IC50 [2] | Ki [2] | IC50 (Calcitonin receptor) | Ki (Calcitonin receptor) | IC50 (Interstitial collagenase) | Ki (Interstitial collagenase) | IC50 [3] | Ki [3]

NC[C@H]1O[C@H](O[C@H]2[C@H](O)[C@@H](O[C@H]3O[C@H](CO)[C@@H](O)[C@H](N)[C@H]3O)[C@H](N)C[C@@H]2N)[C@H](N)C[C@@H]1O [TOBRAMYCIN]
Not Active: IC50 [1] | IC50 (Carbonic anhydrase 2) | IC50 (Caspase-1) | IC50 (Leukotriene C4 synthase) | IC50 [2] | IC50 (Calcitonin receptor) | IC50 (Interstitial collagenase) | IC50 [3] | Ki [3]

Nc1ccc(S(=O)(=O)Nc2ncccn2)cc1 [SULFADIAZINE]
Not Active: IC50 [1] | IC50 (Caspase-1) | IC50 (Leukotriene C4 synthase) | IC50 [2] | IC50 (Calcitonin receptor) | IC50 (Interstitial collagenase) | IC50 [3] | Ki [3]

O=c1n(CCCN2CCN(c3cccc(Cl)c3)CC2)nc2ccccn12 [TRAZODONE]
Not Active: IC50 [1] | IC50 (Carbonic anhydrase 2) | IC50 (Caspase-1) | IC50 (Leukotriene C4 synthase) | IC50 (Calcitonin receptor) | IC50 (Interstitial collagenase)

CN1C2CCCC1CC(NC(=O)c1nn(C)c3ccccc13)C2 (stereo not given) [GRANISETRON]
Not Active: IC50 [1] | IC50 (Carbonic anhydrase 2) | IC50 (Caspase-1) | IC50 (Leukotriene C4 synthase) | IC50 (Calcitonin receptor) | IC50 (Interstitial collagenase)

From ChEMBL document CHEMBL1909046, “DrugMatrix in vitro pharmacology data”
